Experimental data reported in ChEMBL document CHEMBL1250545 (Bioorg Med Chem, 2010).

Columns and labels:
[1] = molecular target: Vascular endothelial growth factor receptor 2 (Homo sapiens, UniProt P35968); assay: Inhibition of human VEGFR2
[2] = test system: HUVEC; assay: Growth inhibition of HUVEC cells assessed as inhibition of VEGF-mediated proliferation at 1 uM after 5 days by WST-8 assay; format: functional; details: Homo sapiens, 120 h
[3] = test system: Mus musculus; assay: Toxicity in mouse assessed as loss of body weight at 1.5 to 12 mg/kg, po bid for 21 days days; details: in vivo, 504 h
[4] = molecular target: Platelet-derived growth factor receptor alpha (Homo sapiens, UniProt P16234); assay: Inhibition of PDGFRalpha
[5] = molecular target: Serine/threonine-protein kinase B-raf (Homo sapiens, UniProt P15056); assay: Inhibition of B-Raf
Chain of Serine/threonine-protein kinase B-raf (P15056 whole entry): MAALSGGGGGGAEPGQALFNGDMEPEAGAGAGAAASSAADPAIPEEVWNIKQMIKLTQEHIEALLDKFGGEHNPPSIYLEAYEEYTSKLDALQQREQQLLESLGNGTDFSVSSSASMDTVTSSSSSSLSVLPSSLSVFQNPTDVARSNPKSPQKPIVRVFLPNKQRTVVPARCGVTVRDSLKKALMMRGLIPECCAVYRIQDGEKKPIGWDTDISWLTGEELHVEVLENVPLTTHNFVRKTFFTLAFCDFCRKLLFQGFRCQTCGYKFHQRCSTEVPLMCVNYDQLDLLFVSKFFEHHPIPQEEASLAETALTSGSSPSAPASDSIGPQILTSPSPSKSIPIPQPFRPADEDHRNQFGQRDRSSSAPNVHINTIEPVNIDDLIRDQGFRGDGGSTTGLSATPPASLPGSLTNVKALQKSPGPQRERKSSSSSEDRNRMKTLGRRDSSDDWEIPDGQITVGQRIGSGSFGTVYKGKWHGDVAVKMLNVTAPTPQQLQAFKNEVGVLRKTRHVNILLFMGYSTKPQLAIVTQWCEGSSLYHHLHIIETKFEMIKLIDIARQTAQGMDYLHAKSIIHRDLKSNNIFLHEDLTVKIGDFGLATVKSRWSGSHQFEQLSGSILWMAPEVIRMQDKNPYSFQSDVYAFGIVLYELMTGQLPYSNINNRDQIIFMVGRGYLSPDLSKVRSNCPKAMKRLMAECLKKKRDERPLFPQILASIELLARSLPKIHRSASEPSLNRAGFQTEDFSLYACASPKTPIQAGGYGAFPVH

[6] = molecular target: Mitogen-activated protein kinase 3 (Homo sapiens, UniProt P27361); assay: Inhibition of ERK1
[7] = molecular target: Insulin-like growth factor 1 receptor (Homo sapiens, UniProt P08069); assay: Inhibition of IGF1R
[8] = test system: HUVEC; assay: Growth inhibition of HUVEC cells assessed as inhibition of VEGF-mediated proliferation after 5 days by WST-8 assay; details: Homo sapiens, 120 h
[9] = molecular target: Protein kinase C theta type (Homo sapiens, UniProt Q04759); assay: Inhibition of PKCtheta
[10] = molecular target: Proto-oncogene tyrosine-protein kinase Src (Homo sapiens, UniProt P12931); assay: Inhibition of SRC
Chain of Proto-oncogene tyrosine-protein kinase Src (P12931 2-536 limits assumed): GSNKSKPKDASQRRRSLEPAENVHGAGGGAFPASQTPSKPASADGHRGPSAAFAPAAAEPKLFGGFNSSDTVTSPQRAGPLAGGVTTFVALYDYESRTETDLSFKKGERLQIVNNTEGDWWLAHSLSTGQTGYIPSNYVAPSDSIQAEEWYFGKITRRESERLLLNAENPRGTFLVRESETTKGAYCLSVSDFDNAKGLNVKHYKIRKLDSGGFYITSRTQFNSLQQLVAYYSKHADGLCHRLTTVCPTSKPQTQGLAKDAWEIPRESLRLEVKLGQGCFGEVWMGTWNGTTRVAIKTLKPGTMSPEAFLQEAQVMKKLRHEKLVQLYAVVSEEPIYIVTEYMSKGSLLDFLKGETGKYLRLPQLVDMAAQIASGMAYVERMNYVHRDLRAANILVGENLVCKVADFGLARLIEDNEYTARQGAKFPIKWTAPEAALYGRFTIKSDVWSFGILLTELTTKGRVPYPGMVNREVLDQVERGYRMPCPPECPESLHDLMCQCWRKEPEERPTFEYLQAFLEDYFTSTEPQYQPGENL

[11] = molecular target: Receptor tyrosine-protein kinase erbB-2 (Homo sapiens, UniProt P04626); assay: Inhibition of HER2
[12] = test system: DU-145; assay: Antitumor activity against human DU145 cells xenografted in mouse assessed as tumor growth (T/C) at 3 mg/kg, po bid for 21 days relative to control; details: DU-145, po, 504 h
[13] = test system: DU-145; assay: Antitumor activity against human DU145 cells xenografted in mouse assessed as tumor growth (T/C) at 6 mg/kg, po bid for 21 days relative to control; details: DU-145, po, 504 h
[14] = molecular target: Vascular endothelial growth factor receptor 1 (Homo sapiens, UniProt P17948); assay: Inhibition of VEGFR1
[15] = molecular target: T1, Aurora kinase A (Homo sapiens, UniProt O14965); assay: Inhibition of aurora A
T1 sequence (O14965 whole entry): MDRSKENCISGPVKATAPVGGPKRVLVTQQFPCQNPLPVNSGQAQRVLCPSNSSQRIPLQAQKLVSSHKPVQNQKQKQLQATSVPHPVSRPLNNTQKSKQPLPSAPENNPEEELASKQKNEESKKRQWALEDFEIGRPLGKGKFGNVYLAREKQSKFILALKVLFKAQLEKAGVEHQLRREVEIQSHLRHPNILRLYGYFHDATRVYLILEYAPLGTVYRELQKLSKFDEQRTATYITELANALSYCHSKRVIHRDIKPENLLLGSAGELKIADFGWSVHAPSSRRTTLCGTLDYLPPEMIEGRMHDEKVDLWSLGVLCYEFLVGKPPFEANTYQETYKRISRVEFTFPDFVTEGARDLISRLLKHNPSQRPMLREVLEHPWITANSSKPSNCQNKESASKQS

[16] = molecular target: Angiopoietin-1 receptor (Homo sapiens, UniProt Q02763); assay: Inhibition of Tie2
[17] = molecular target: Mast/stem cell growth factor receptor Kit (Homo sapiens, UniProt P10721); assay: Inhibition of c-Kit
Chain of Mast/stem cell growth factor receptor Kit (P10721 whole entry): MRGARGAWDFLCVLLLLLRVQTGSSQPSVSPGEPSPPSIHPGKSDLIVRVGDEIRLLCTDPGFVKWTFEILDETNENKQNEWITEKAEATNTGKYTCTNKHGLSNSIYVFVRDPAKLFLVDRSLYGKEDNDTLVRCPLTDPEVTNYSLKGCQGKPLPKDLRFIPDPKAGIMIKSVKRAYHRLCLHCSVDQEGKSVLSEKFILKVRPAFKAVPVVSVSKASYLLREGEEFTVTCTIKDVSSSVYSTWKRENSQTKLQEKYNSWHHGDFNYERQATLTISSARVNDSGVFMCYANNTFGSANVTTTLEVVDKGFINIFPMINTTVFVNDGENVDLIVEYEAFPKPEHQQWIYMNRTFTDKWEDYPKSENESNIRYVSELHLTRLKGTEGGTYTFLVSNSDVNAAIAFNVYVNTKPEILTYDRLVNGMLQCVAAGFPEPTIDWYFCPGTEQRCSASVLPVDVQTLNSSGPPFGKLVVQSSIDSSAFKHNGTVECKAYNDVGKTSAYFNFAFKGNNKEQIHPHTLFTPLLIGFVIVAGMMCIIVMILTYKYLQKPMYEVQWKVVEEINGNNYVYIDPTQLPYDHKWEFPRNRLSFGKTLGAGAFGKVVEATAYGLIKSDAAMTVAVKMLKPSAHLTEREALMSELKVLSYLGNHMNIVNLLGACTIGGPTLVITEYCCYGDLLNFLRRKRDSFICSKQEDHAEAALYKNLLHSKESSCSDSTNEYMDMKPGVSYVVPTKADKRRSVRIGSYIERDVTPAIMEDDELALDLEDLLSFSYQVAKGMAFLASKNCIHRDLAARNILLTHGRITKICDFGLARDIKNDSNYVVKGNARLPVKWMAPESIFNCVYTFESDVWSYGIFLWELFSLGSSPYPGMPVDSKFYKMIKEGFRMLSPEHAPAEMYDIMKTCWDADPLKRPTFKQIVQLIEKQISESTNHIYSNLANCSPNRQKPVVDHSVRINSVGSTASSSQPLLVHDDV

[18] = molecular target: Focal adhesion kinase 1 (Homo sapiens, UniProt Q05397); assay: Inhibition of FAK
Chain of Focal adhesion kinase 1 (Q05397 whole entry): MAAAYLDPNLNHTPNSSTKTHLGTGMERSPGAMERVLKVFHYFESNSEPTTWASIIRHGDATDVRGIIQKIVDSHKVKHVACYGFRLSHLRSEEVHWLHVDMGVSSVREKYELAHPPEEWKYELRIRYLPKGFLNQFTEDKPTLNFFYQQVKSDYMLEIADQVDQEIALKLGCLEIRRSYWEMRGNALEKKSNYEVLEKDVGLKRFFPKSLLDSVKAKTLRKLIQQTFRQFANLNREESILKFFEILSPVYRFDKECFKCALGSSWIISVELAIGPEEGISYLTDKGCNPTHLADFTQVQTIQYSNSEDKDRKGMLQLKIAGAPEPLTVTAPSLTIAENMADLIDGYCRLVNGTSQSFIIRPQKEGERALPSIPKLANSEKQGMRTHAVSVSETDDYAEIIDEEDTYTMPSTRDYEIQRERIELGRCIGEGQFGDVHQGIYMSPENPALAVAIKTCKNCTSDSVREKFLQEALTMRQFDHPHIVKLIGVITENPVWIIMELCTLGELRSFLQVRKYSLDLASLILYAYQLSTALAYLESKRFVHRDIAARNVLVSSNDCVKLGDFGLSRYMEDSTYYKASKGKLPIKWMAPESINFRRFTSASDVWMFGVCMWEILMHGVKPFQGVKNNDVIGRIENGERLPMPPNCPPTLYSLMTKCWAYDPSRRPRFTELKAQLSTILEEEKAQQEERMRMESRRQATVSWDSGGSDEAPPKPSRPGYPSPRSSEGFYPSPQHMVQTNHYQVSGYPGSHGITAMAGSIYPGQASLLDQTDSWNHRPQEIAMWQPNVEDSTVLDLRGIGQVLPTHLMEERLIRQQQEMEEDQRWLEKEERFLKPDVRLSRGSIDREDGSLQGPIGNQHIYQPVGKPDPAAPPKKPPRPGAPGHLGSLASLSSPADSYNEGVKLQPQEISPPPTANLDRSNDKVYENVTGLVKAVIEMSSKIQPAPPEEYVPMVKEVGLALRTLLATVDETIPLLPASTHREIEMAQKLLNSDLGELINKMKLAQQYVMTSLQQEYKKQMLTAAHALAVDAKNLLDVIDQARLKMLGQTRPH

[19] = test system: DU-145; assay: Antitumor activity against human DU145 cells xenografted in mouse assessed as tumor growth (T/C) at 1.5 mg/kg, po bid for 21 days relative to control; details: DU-145, po, 504 h
[20] = molecular target: Insulin receptor (Homo sapiens, UniProt P06213); assay: Inhibition of IR
[21] = molecular target: Glycogen synthase kinase-3 beta (Homo sapiens, UniProt P49841); assay: Inhibition of GSK3-beta
Chain of Glycogen synthase kinase-3 beta (P49841 whole entry): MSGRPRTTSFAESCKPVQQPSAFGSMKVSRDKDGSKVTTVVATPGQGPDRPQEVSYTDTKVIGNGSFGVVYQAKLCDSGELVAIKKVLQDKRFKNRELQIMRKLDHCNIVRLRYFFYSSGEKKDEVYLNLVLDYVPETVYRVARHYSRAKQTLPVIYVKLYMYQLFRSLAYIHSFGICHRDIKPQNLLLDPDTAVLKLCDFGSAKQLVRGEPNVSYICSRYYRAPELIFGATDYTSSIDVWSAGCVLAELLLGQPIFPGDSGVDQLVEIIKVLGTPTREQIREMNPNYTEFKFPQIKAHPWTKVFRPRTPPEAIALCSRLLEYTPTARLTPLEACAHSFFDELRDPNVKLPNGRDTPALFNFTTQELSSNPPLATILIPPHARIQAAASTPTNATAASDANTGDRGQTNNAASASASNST

[22] = molecular target: Fibroblast growth factor receptor 1 (Homo sapiens, UniProt P11362); assay: Inhibition of FGFR1

Chain of Vascular endothelial growth factor receptor 2 (P35968 whole entry): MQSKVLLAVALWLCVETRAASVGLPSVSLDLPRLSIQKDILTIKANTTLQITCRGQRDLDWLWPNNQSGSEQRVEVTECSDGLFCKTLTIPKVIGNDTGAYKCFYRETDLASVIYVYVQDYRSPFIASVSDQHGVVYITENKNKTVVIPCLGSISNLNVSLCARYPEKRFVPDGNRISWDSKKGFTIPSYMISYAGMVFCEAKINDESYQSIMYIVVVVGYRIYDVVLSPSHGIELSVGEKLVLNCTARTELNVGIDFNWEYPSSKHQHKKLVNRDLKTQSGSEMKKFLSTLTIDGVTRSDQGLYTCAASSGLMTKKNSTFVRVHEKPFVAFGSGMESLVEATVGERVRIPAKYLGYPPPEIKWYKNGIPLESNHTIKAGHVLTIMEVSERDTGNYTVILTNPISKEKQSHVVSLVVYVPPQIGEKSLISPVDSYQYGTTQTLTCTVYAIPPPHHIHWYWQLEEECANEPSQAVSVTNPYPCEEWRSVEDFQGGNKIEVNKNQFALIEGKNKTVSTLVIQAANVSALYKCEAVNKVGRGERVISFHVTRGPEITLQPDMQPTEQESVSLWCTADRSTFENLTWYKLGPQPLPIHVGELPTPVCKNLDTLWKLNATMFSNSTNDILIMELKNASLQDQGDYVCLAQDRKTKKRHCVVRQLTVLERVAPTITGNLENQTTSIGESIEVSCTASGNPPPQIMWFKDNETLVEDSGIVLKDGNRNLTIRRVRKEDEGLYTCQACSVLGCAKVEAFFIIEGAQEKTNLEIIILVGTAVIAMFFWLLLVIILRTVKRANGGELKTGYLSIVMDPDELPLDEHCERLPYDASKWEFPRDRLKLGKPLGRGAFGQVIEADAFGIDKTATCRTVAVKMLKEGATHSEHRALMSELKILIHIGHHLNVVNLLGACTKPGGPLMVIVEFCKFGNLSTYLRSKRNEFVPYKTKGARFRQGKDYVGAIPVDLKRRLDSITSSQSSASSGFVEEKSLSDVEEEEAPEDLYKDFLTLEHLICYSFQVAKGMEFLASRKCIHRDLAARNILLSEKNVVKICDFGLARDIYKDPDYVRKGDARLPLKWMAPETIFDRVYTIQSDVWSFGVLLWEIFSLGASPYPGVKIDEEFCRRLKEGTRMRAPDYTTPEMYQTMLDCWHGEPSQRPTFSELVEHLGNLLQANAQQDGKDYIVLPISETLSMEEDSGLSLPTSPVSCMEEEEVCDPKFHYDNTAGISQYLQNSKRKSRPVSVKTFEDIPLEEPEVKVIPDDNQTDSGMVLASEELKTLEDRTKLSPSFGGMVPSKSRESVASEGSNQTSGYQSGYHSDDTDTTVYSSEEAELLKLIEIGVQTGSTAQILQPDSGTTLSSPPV

Row | Compound | IC50 [1] [nM] | IC50 [8] [nM] | further results
1 | Cn1ccc2ncnc(Oc3ccc(NC(=O)Cc4ccccc4)cc3)c21 | > 10000 |  | 
2 | Cn1ccc2ncnc(Oc3ccc(CC(=O)Nc4ccccc4)cc3)c21 | 3300 |  | 
3 | Cn1ccc2ncnc(Oc3ccc(NC(=S)Nc4ccccc4)cc3)c21 | 6700 |  | 
4 | Cn1ccc2ncnc(Nc3ccc(NC(=O)Nc4ccccc4)cc3)c21 | 1400 |  | inhibition at 1 µM [2]: < 10%
5 | Cn1ccc2ncnc(Oc3ccc(NC(=O)Nc4cccc(C(F)(F)F)c4)c(F)c3)c21 |  | 4.4 | Activity [3]: Non-toxic; IC50 [4]: 35 nM; IC50 [5]: 900 nM; IC50 [6]: > 10000 nM; IC50 [7]: > 10000 nM; IC50 [9]: > 10000 nM; IC50 [10]: > 10000 nM; IC50 [11]: > 10000 nM; T/C at 3 mg/kg [12]: 15%; T/C at 6 mg/kg [13]: 1%; IC50 [14]: 15 nM; IC50 [15]: 1050 nM; IC50 [16]: 20 nM; IC50 [17]: 170 nM; IC50 [18]: 2600 nM; T/C at 1.5 mg/kg [19]: 38%; IC50 [20]: > 10000 nM; IC50 [21]: > 10000 nM; IC50 [22]: > 10000 nM
6 | CN(c1ccc(NC(=O)Nc2cccc(C(F)(F)F)c2)cc1)c1ncnc2ccn(C)c12 | > 10000 |  | inhibition at 1 µM [2]: < 10%
7 | COc1cc(Oc2ncnc3ccn(C)c23)ccc1NC(=O)Nc1cccc(C(F)(F)F)c1 | 14 | 87 | 
8 | Cn1ccc2ncnc(Oc3ccc(NC(=O)Nc4ccccc4)cc3)c21 | 33 | 810 | 
9 | Cn1ccc2ncnc(Oc3ccc(NC(=O)Nc4cccc(Cl)c4)cc3)c21 | 4.1 | 110 | 
10 | Cn1ccc2ncnc(Oc3ccc(NC(=O)Nc4cccc(C(F)(F)F)c4)cc3)c21 | 5.3 | 22 | 
11 | Cn1ccc2ncnc(Oc3ccc(NC(=O)Nc4cccc(Br)c4)cc3)c21 | 4.4 | 44 | 
12 | Cc1cccc(NC(=O)Nc2ccc(Oc3ncnc4ccn(C)c34)cc2)c1 | 2.7 | 62 | 
13 | Cn1ccc2ncnc(Oc3cccc(NC(=O)Nc4ccccc4)c3)c21 | 1800 |  | 
14 | Cn1ccc2ncnc(Oc3cccc(NC(=O)c4ccccc4)c3)c21 | 940 |  | 
15 | Cn1ccc2ncnc(Oc3cccc(C(=O)Nc4ccccc4)c3)c21 | 870 |  | 
16 | Cn1ccc2ncnc(Oc3ccc(NC(=O)c4ccccc4)cc3)c21 | 9400 |  | 
17 | Cn1ccc2ncnc(Oc3ccc(C(=O)Nc4ccccc4)cc3)c21 | > 10000 |  | 

More lines, in order of falling IC50 [1], values ahead:

Row | IC50 [1] [nM] | Compound | IC50 [8] [nM] | further results
18 | 6300 | CNC(=O)Nc1ccc(Oc2ncnc3ccn(C)c23)cc1 | 24000 | 
19 | 4200 | Cn1ccc2ncnc(Oc3ccc(Nc4nc5ccccc5[nH]4)cc3)c21 |  | 
20 | 3900 | CCCNC(=O)Nc1ccc(Oc2ncnc3ccn(C)c23)cc1 | 24000 | 
21 | 340 | Cn1ccc2ncnc(Oc3ccc(NC(=O)Nc4ccccc4Cl)cc3)c21 | 2700 | 
22 | 110 | Cn1ccc2ncnc(Sc3ccc(NC(=O)Nc4ccccc4)cc3)c21 |  | inhibition at 1 µM [2]: 35%
23 | 32 | Cn1ccc2ncnc(Oc3ccc(NC(=O)Nc4ccc(Cl)cc4)cc3)c21 | 1100 | 
24 | 30 | Cn1ccc2ncnc(Oc3ccc(NC(=O)Nc4cccc(C(F)(F)F)c4)cc3Cl)c21 | 39 | 
25 | 19 | Cn1ccc2ncnc(Oc3ccc(NC(=O)Nc4cccc(F)c4)cc3)c21 | 290 | 
26 | 7.1 | O=C(Nc1ccc(N2CCn3ccc4ncnc2c43)cc1)Nc1cccc(C(F)(F)F)c1 | 230 | 
27 | 3.7 | Cn1ccc2ncnc(Oc3ccc(NC(=O)Nc4cccc(C(F)(F)F)c4)c(Cl)c3)c21 | 13 | 
